From patent publication US20250228848A1, “PROCESS FOR MAKING A KRAS G12C INHIBITOR” (ELI LILLY AND COMPANY, priority 2022, published 2025)
Where two headings read alike, the source gives them in different places.

Columns and labels:
[1] = system: phosphorylation of p-ERK1/2 in human lung cancer cells H358; assay: H358 Cellular Phospho-ERK AlphaLISA; assay type: cell-based; conditions: incubated for 2 hours with compound, p-ERK 1/2 (Thr202/Tyr204)
Experimental: Briefly, the AlphaLISA® SureFire® Ultra™ p-ERK 1/2 (Thr202/Tyr204) assay is a sandwich immunoassay for quantitative detection of phospho-ERK 1/2 (phosphorylated on Thr202/Tyr204 in ERK1, or Thr185/Tyr187 in ERK2) in cellular lysates using Alpha Technology (Perkin Elmer Cat #ALSU-PERK-A50K).
The next morning, 10 μL of serially-diluted (3-fold) test compounds (50 μM top concentration) and 10 μL of controls (Maximum signal wells: 5% DMSO and Minimum signal wells: 2 μM of N-(3-{3-cyclopropyl-5-[(2-fluoro-4-iodophenyl)amino]-6,8-dimethyl-2,4,7-trioxo-3,4,6,7-tetrahydropyrido[4,3-D]pyrimidin-1(2H)-yl}phenyl)acetamide (trametinib, as a positive control) are added to the cell plate and incubated for 2 hours in humid trays at 37° C./5% CO2. Lysis Buffer is prepared at ambient temperature containing a protease and phosphatase inhibitor cocktail. Culture medium is removed by inverting and shaking the cell plate in the sink and then blotting onto a paper towel. Lysis buffer is added to the cell plate (50 μL per well) and the plate is incubated at ambient temperature for 10 minutes on a shaker. For p-ERK detection, acceptor beads are diluted into a suspension mixture with buffer. Using a STARlet liquid handler, 5 μL of acceptor beads and 2 μL of cell lysate are transferred as a single-step in-tip dilution to a 384 well assay plate. The assay plate is sealed with foil and is incubated at ambient temperature for 2 hours. Donor beads are diluted into a suspension mixture with buffer. Using the STARlet, 5 μL of donor beads are added to the assay plate that is then sealed, wrapped with foil. The plate is incubated at ambient temperature for 2 hours in the dark. The assay plate is then read on an EnVision™ Plate Reader (Perkin Elmer) using a luminescence program.
The signal is converted to percent inhibition using the following equation: % Inhibition=100−[(Test Compound Signal−Median Minimum Signal)/(Median Maximum Signal−Median Min Signal)×100]. The Maximum signal is a control well without inhibitor.
(§1) Compounds within the scope of this disclosure are evaluated in this assay substantially as described above.

[2] = system: constitutive RAS GTPase activity in human lung cancer cells H358; assay: H358 Cellular Active RAS GTPase ELISA; assay type: cell-based; conditions: serum free media, incubated for 2 hours with compound
Experimental: Activated RAS (GTP-bound) in cell extracts specifically bind to the Raf-RBD. Bound RAS is detected with a primary antibody that recognizes human KRas. A secondary antibody conjugated with HRP recognizes the primary antibody and a development solution provides a chemiluminescent readout.
The next morning, 10 μL of serially-diluted (3-fold) test compounds (500 μM top concentration) and 10 μL of controls (Maximum signal wells: 5% DMSO and Minimum signal wells: 500 μM 1-[4-[6-chloro-8-fluoro-7-(3-hydroxy-1-naphthyl)quinazolin-4-yl]piperazin-1-yl]prop-2-en-1-one, WO2015054572 as an inhibitor) are added to the cell plate and incubated for 2 hours at 37° C./5% CO2. Complete Lysis/Binding Buffer is prepared containing Protease Inhibitor cocktail and GST-Raf-RBD and stored on ice. One hour before cell plate incubation is completed, 50 μL of GST-Raf-RBD is diluted in lysis/binding buffer, and buffer is added to the ELISA assay plate and which is incubated for 1 hour at 4° C. with gently rocking. After 2 hours, the cells are washed with 100 μL ice-cold PBS and lysed with 100 μL lysis/binding buffer. The cell plate is shaken for 10 minutes at ambient temperature. The cell plate is then centrifuged at 1500 rpm for 10 minutes at ambient temperature. During this time, 1×Wash Buffer is prepared at ambient temperature and then is used to wash (3×100 μL) the GST-Raf-RBD coated assay plate. After washing, 50 μL of cell lysate is added to the GST-Raf-RBD coated assay plate and incubated for 1 hour at ambient temperature with gentle shaking. During this incubation period, 1×Antibody Binding Buffer is prepared and brought to ambient temperature. The assay plate is washed 3×100 μL with 1×Wash Buffer and then 50 μL of Primary Antibody (diluted 1:500 in 1×Antibody Binding buffer) is added. The plate is incubated for 1 hour at ambient temperature. The assay plate is washed 3×100 μL with 1×Wash Buffer and then 50 μL of Secondary Antibody (diluted 1:5000 in 1×Antibody Binding buffer) is added and incubated for 1 hour at ambient temperature. The assay plate is washed 4×100 μL with 1×Wash buffer and then 50 μL of chemiluminescent working solution is added at ambient temperature. The assay plate is then read on an EnVision™ Plate Reader (Perkin Elmer) using a luminescence program.
The signal is converted to percent inhibition using the following equation: % Inhibition=100−[(Test Compound Signal−Median Minimum Signal)/(Median Maximum Signal−Median Minimum Signal)×100]. The Maximum signal is a control well without inhibitor.
as §1

KRas G12C = KRas G12C (Homo sapiens, UniProt P01116, G12C); assay: KRas G12C Probe Occupancy TR-FRET Assay; assay type: binding; conditions: for IC50 concentrations relative to Examples 1, 3, 5, and 7 (the P atropisomer designations): comparison of M with P atropisomers, Table 3
Text: The purpose of this assay is to measure the ability of an inhibitor to compete with a probe for binding to and covalently modifying KRas G12C at codon 12. The signal is generated by the time-resolved transfer of fluorescence between europium on an antibody bound to KRas G12C Europium-labeled Anti-Histidine Tag Antibody LanthaScreen (the Eu Anti-His antibody) and fluorescent Tracer 647 (Alexa Fluor™) bound to KRas G12C through streptavidin and a biotinylated inhibitor (the “KRas Probe”, see Preparation 223).
Inhibitors are tested in dose response format from 10 mM stocks in 100% DMSO. The Labycyte Echo® 555 is used to dilute and transfer 100 nL per well containing a 10 point, 2.8-fold serial dilution to an assay plate. Two copies of the assay plate are prepared to measure the potency after 5 and 60 minutes incubation of the inhibitor with KRas G12C. His-tagged KRas G12C (20 nM) is added to the plates in assay buffer (20 mM Tris-HCl, pH 7.5, 0.01% TX-100, and 1 mM DTT). After 5 or 60 minutes incubation, 1 μM KRas Probe is added and allowed to covalently modify free KRas G12C for 1 hour. This is diluted 4-fold in buffer containing Eu Anti-His antibody and Streptavidin-Coated Tracer 647 (both from Life Technologies) to achieve KRas G12C (5 nM), Anti-His Antibody (2 nM), KRas Probe ([…]), and Streptavidin Coated Tracer 647 (500 nM). After 30 minutes, the fluorescent signal is read on an Envision™ Plate Reader (excitation at 340 nm, tracer emission (em) at […], and antibody emission at 615 nm). Maximum control wells lack inhibitor and minimum control wells lack both inhibitor and KRas G12C. The signal ratio (em at 665/em at 615) is converted to percent inhibition using the following equation: % Inhibition=100−[(Test Compound Signal−Median Minimum Signal)/(Median Maximum Signal−Median Minimum Signal)×100]. The IC50 is determined by fitting the percent inhibition at each inhibitor concentration to the four parameter nonlinear logistic equation using Genedata Screener®: y=(A+((B−A)/(1+((C/x)∧D)))) where, y=% inhibition, A=minimum asymptote, B=maximum asymptote, C=relative IC50 or the inhibitor concentration producing 50% inhibition within the fitted range of both asymptotes, and D=Hill Slope. Compounds within the scope of this disclosure are evaluated in this assay substantially as described above.

[3] = 5 minutes incubation of the inhibitor with His-tagged KRas G12C before KRas Probe, read-out: IC50 (nM) @ 5 min
[4] = 60 minutes incubation of the inhibitor with His-tagged KRas G12C before KRas Probe, read-out: IC50 (nM) @ 60 min

KRas G12C, sequence (P01116 1-188 isoform P01116-2 G12C): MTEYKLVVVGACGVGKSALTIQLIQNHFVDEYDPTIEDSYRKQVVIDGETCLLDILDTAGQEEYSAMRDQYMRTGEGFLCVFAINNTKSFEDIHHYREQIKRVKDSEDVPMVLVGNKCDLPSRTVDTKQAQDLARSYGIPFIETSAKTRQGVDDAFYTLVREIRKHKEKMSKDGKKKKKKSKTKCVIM

SMILES | IC50 [1] [nM] | IC50 ([2]; read-out: IC50) [nM] | IC50 (KRas G12C; [3]) [nM] | IC50 (KRas G12C; [4]) [nM] | IC50 concentrations relative to Examples 1, 3, 5, and 7 (the P atropisomer designations) (KRas G12C) | IC50 [2] [nM]
C=CC(=O)N1CCN2C(=O)c3cc(F)c(-c4cccc5sc(N)c(C#N)c45)c(Cl)c3OCC[C@H]2C1 (single isomer, unassigned) [Example 4] | 1.31 | 5.66 | < 15 | < 15 | superior IC50 concentrations | 
C=CC(=O)N1CCN2C(=O)c3cc(F)c(-c4ccc(F)c5sc(N)c(C#N)c45)c(Cl)c3OC[C@H]2C1 (single isomer, unassigned) [Example 8] | 0.902 | 4.62 | < 15 | < 15 | superior IC50 concentrations | 
C=CC(=O)N1CCN2C(=O)c3cc(F)c(-c4cccc5sc(N)c(C#N)c45)c(Cl)c3OCC[C@H]2C1 (single isomer, unassigned) [Example 3] | 206 | 902 | 451 | 843 |  | 
C=CC(=O)N1CCN2C(=O)c3cc(F)c(-c4ccc(F)c5sc(N)c(C#N)c45)c(Cl)c3OC[C@H]2C1 (single isomer, unassigned) [Example 7] | 2980 | 23800 | 26900 | 17900 |  | 
C=CC(=O)N1CCN2C(=O)c3cc(Cl)c(-c4ccc(F)c5sc(N)nc45)c(Cl)c3OCC[C@H]2C1 (single isomer, unassigned) [Example 2] |  | 6.71 | < 15 | < 15 | superior IC50 concentrations | 
C=CC(=O)N1CCN2C(=O)c3cc(Cl)c(-c4ccc(F)c5sc(N)nc45)c(Cl)c3OCC[C@H]2C1 (single isomer, unassigned) [Example 1] | 2460 | 14400 | 18600 | 16000 |  | 
C=CC(=O)N1CCN2C(=O)c3cc(F)c(-c4ccc(F)c5sc(N)c(C#N)c45)c(Cl)c3OCC[C@H]2C1 (single isomer, unassigned) [Example 5] | 330 |  | 3270 | 3250 |  | 1770
C=CC(=O)N1CCN2C(=O)c3cc(F)c(-c4ccc(F)c5sc(N)c(C#N)c45)c(Cl)c3OCC[C@H]2C1 (single isomer, unassigned) [Example 6] | 0.649 |  | < 15 | < 15 | superior IC50 concentrations | 3.31
